How the values were obtained:
[1] = test system: Rac1 activity in IMCD cells; test: PAK-1-PBD pull down, Rac1; assay type: cell-based, rat; details: 30 μM, 1 h
Protocol: (§1) The (p21) binding domain (PBD) of p21 activated kinase 1 protein (PAK-1) spans amino acids 67–150 of PAK-1 and binds specifically to the GTP-bound Rac-1 and Cdc42. The PBD was prepared as described and used for selective precipitation of the activated GTPases from IMCD cells. The PBD was expressed as a GST-fusion protein in DH5α E-coli cells, the cells were lysed using a French press, and the fusion protein was purified with Glutathione Sepharose 4 Fast Flow GST-tagged protein purification resin kit according to the manufacturer’s instructions (GE Healthcare; #17-5132-01). The PAK-1-PBD pull down was carried out with 400–500 μg protein from IMCD cell lysates. Proteins were eluted from the beads by boiling with Laemmli sample buffer, and analyzed by Western blotting. The membranes were first probed for Cdc42, and the GTP-bound active fraction of the protein was related to total Cdc42, and to the loading control GAPDH. The membranes were re-probed for Rac-1 accordingly to determine the active GTP-bound Rac-1 fraction.
(§2) Fig 10 Scaff10-8 inhibits activation of RhoA in primary IMCD cells. IMCD cells were incubated with Scaff10-8 (30 μM, 1 h). DMSO (1%), the solvent of Scaff10-8, served as a control. […] Signals were semiquantitatively analyzed by densitometry. […] Statistically significant differences were determined using one-way ANOVA with posthoc Bonferroni. […]

[2] = test system: RhoA activity in IMCD cells; test: Rhotekin pull down of active RhoA in IMCD cells; assay type: cell-based, rat; details: 30 μM
Protocol: Western blotting for the detection of RhoA and Hsp90 and a Rhotekin pull down for the detection of active, GTP-bound RhoA were adapted from a procedure previously described by us. In brief, IMCD cells were cultured as described, DBcAMP and nystatin were removed on day twelve after seeding by exchange of medium for medium without the compounds. On the following day, Scaff10-8 was added to a final concentration of 30 μM or, as a control, the solvent DMSO (0.3%) for 1 h. Then cells were treated with forskolin (30 μM) for an additional 30 min, and subsequently incubated at 4°C in ice-cold Rhotekin buffer (50 mM Tris, pH 7.2; 1% (w/v) Triton X-100; 0.5% sodium deoxycholate; 500 mM NaCl; 10 mm MgCl2; PhosSTOP EASY (PhosSTOP EASY pack, Roche Diagnostics, Mannheim, DE; #REF04906837001), Complete mini EDTA-free (Complete mini EDTA-free, Roche Diagnostics, Mannheim, DE; #REF0693159001), for 10 min and lysed. Lysates (300–400 μg protein) were incubated with 300 μl of Rhotekin beads as previously described Proteins were eluted from beads with Laemmli buffer and analyzed by Western blotting. […]
Fig 10 Scaff10-8 inhibits activation of RhoA in primary IMCD cells. […] Signals were semiquantitatively analyzed by densitometry. […] Statistically significant differences were determined using one-way ANOVA with posthoc Bonferroni. […]

GST = GST (Schistosoma japonicum, UniProt P08515); test: ITC control with GST alone; assay type: binding
Protocol: ITC measurements were essentially carried out as previously described. The stabilizing RhoA mutant F25N [41] was purified as a GST-RhoA fusion in its GDP-bound form (final gel filtration purification step in 20 mM HEPES, pH 7.5, 150 mM NaCl, 2 mM DTT, 50 μM GDP). In order to exchange GDP against GTPγS, GST-RhoA loaded with GDP was incubated for 20 min in ITC nucleotide exchange buffer (50 mM HEPES, pH 7.5, 20 mM EDTA) at 25°C followed by three dilution and concentration steps in Amicon tubes (10,000 MWCO) using ITC dialysis buffer (50 mM HEPES, pH 7.4, 150 mM NaCl, 5 mM MgCl2, 2 mM β-mercaptoethanol). The nucleotide-loading state was confirmed by HPLC. All proteins used in ITC measurements were dialyzed overnight against ITC dialysis buffer. Protein concentrations were determined with NanoDrop ND-1000. GDP or GTPγS (final concentration 2 mM) and DMSO (2%) were added to the proteins prior to the ITC measurements. Scaff10-8 was dissolved in the same buffer (including 2% DMSO and 2 mM GDP or GTPγS). ITC measurements were performed on a VP-ITC (GE Healthcare, München, DE) at 15°C. Titrations were conducted using 14.8 μM Scaff10-8 in the cell and 235 μM (GST control), 222 μM (GST-RhoA, GDP-bound) or 210 μM (GST-RhoA, GTPγS-bound) in the syringe. The cell was stirred at 351 rpm and a total of 27 x 10 μl injections were added to the cell, separated by 240 s of equilibration. […]

[3] = test system: Cdc42 activity in IMCD cells; test: PAK-1-PBD pull down, Cdc42; assay type: cell-based, rat; details: 30 μM, 1 h
Protocol: as §1, §2

GST, sequence (P08515 whole entry, the tested form may be a part): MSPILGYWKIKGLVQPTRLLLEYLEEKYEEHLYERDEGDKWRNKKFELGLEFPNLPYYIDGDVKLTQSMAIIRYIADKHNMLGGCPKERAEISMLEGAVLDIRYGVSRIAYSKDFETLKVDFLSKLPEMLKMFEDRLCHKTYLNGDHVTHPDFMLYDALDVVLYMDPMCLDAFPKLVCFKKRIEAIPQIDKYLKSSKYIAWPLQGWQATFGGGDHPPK

## COc1ccc(-c2coc3cc4oc(=O)c(CCC(=O)O)c(C)c4cc23)cc1 [Scaff10-8, 3-[3-(4-Methoxyphenyl)-5-methyl-7-oxo-furo[3,2-g]chromen-6-yl] propanoic acid]
[1]
  activity of Rac1: did not influence activities
[2]; 1 h
  RhoA activity: decreased RhoA activity
[2]; 1 h plus forskolin 30 μM, 30 min
  effect on RhoA inhibition by forskolin: did not significantly enhance
GST
  binding to GST control: did not bind
[3]
  activity of Cdc42: did not influence activities

Reference: publication PMC5786306, “An AKAP-Lbc-RhoA interaction inhibitor promotes the translocation of aquaporin-2 to the plasma membrane of renal collecting duct principal cells” (PLoS ONE, 2018)
